Data on ten compounds can be found in PubChem BioAssay (NCI).

Some test systems named below: A498 renal; DU-145 prostate; HS 578T breast; K-562 leukemia; LOX IMVI melanoma; OVCAR-4 ovarian; SK-MEL-28 melanoma; SW-620 colon.
What all share (assay): DTP human tumour cell line panel, 48 h

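Growth conditions: 96-well plates. Treatment: test compound, 48 hours, 5 concentrations. Analysis: linear interpolation between bracketing concentrations; unreached endpoints set to highest concentration. At the GI50, growth is halved. TGI: total growth inhibition.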

As for `CNCc1cccc2c1OCCOCCOCCNS(=O)(=O)c1ccc(cc1)-c1cnc(N)c(n1)C(=O)N2`, the GI50 (usually the concentration giving 50% growth inhibition) with A498 renal was 1.36 µM; in the assay on DU-145 prostate it was 1.24 µM; in the assay with HS 578T breast, 0.477 µM; with K-562 leukemia, 1.26 µM; in the assay on LOX IMVI melanoma, 0.889 µM; with OVCAR-4 ovarian, 1.5 µM. Further, the GI50 was 1.66 µM in the assay with SK-MEL-28 melanoma and 0.875 µM in the assay on SW-620 colon. In addition, the TGI (as a rule, the concentration giving total growth inhibition) in the assay with A498 renal is 3.79 µM; with DU-145 prostate it was 3.36 µM; in the assay on HS 578T breast, 3.05 µM; in the assay with K-562 leukemia, 5.46 µM; in the assay with LOX IMVI melanoma, 2.27 µM; in the assay on OVCAR-4 ovarian, 6.42 µM. Also, the TGI stood at 3.27 µM in the assay on SK-MEL-28 melanoma and 3.13 µM with SW-620 colon.

With `CN(C)[C@@H]1C(=O)C(C(=O)NCc2nc3[nH]cnc(=S)c3[nH]2)=C(O)[C@@]2(O)C(=O)C3=C(O)c4c(O)cccc4[C@@](C)(O)[C@H]3C[C@@H]12`, the GI50 in the assay on A498 renal was greater than 100 µM; in the assay on DU-145 prostate, 4.43 µM; in the assay with HS 578T breast it was greater than 100 µM; in the assay on K-562 leukemia, 1.41 µM; with LOX IMVI melanoma, 1.23 µM; with OVCAR-4 ovarian it was 1.13 µM. For the same compound, the values for the GI50 in the assay on SK-MEL-28 melanoma and in the assay on SW-620 colon were greater than 100 µM and 17 µM, respectively. Also, the TGI in the assay on A498 renal, in the assay with DU-145 prostate, with HS 578T breast, in the assay on K-562 leukemia, in the assay on LOX IMVI melanoma and with OVCAR-4 ovarian was greater than 100 µM each time. Also, the TGI in the assay on SK-MEL-28 melanoma and in the assay on SW-620 colon was greater than 100 µM throughout.

In the case of `COc1ccc(Cn2c(Br)c3c(c2-c2cc(OC)c(OC)c(OC)c2)CCc2sc(N)nc2-3)cc1`, the GI50 in the assay with A498 renal is 0.267 µM; in the assay on DU-145 prostate, 2.04 µM; in the assay on HS 578T breast, 2.08 µM; in the assay on K-562 leukemia it was 0.436 µM; in the assay with LOX IMVI melanoma, 0.869 µM; in the assay on OVCAR-4 ovarian, 2.5 µM. The GI50 in the assay on SK-MEL-28 melanoma is 4.76 µM; in the assay on SW-620 colon it was 0.515 µM. Moreover, the TGI in the assay on A498 renal was 2.36 µM; in the assay on DU-145 prostate, 7.43 µM; in the assay on HS 578T breast, greater than 100 µM; with K-562 leukemia, greater than 32.9 µM; in the assay on LOX IMVI melanoma, 6.14 µM; in the assay with OVCAR-4 ovarian it was greater than 57.3 µM. Moreover, the TGI came to 33.6 µM in the assay on SK-MEL-28 melanoma and 7.65 µM in the assay with SW-620 colon.

Turning to `CN(c1ccccc1)c1c2ccccc2nc2[nH]c3ccccc3c12`, the GI50 with A498 renal is 2.04 µM; in the assay on DU-145 prostate it was 1.44 µM; in the assay with HS 578T breast, 3.06 µM; in the assay on K-562 leukemia, 2.41 µM; with LOX IMVI melanoma it was 1.43 µM; with OVCAR-4 ovarian, 4.42 µM. In addition, the GI50 was 2.08 µM in the assay with SK-MEL-28 melanoma and 2.04 µM in the assay with SW-620 colon. The TGI in the assay on A498 renal was 5.32 µM; with DU-145 prostate, 8.76 µM; in the assay with HS 578T breast it was 12.9 µM; with K-562 leukemia, greater than 56.8 µM; in the assay on LOX IMVI melanoma, 4 µM; in the assay on OVCAR-4 ovarian, greater than 48.7 µM. Besides, the TGI in the assay with SK-MEL-28 melanoma turned out to be 7.42 µM; in the assay on SW-620 colon it was 8.82 µM.

Consider `O=C1c2ccccc2N1C(=O)c1ccccc1[N+](=O)[O-]`, for which the TGI was greater than 100 µM in the assay with A498 renal; greater than 100 µM in the assay with DU-145 prostate; greater than 100 µM with HS 578T breast; greater than 100 µM with K-562 leukemia; 81.6 µM in the assay on LOX IMVI melanoma; greater than 100 µM in the assay on OVCAR-4 ovarian. Besides, the TGI in the assay with SK-MEL-28 melanoma and in the assay with SW-620 colon was greater than 100 µM in each case.

Take `Nc1cc(C(F)(F)F)c(-c2nc(N3CCOCC3)nc(N3CCOCC3)n2)cn1`: the GI50 is 0.14 µM in the assay on A498 renal; 0.475 µM in the assay with DU-145 prostate; 0.231 µM in the assay with HS 578T breast; 3.65 µM with K-562 leukemia; 0.667 µM in the assay on OVCAR-4 ovarian; 0.248 µM with SK-MEL-28 melanoma. For the same compound, the GI50 in the assay with SW-620 colon is 0.921 µM. For the same compound, the TGI was 0.45 µM with A498 renal; greater than 100 µM in the assay on DU-145 prostate; 1.46 µM with HS 578T breast; greater than 100 µM in the assay on K-562 leukemia; greater than 35.1 µM in the assay with LOX IMVI melanoma; greater than 31.1 µM in the assay on OVCAR-4 ovarian. Moreover, the TGI with SK-MEL-28 melanoma was 3.71 µM; in the assay on SW-620 colon, greater than 100 µM.

As to `O=C1NC(c2ccccc2Cl)Nc2ccccc21` (stereo not drawn), the TGI with A498 renal was greater than 100 µM; with DU-145 prostate it was greater than 100 µM; in the assay on HS 578T breast, 54.7 µM; with K-562 leukemia, greater than 30.4 µM; with LOX IMVI melanoma it was greater than 100 µM; in the assay on OVCAR-4 ovarian, greater than 100 µM. For the same compound, the TGI with SK-MEL-28 melanoma is greater than 100 µM; with SW-620 colon, greater than 30.1 µM.

Take `Cc1cccc(Oc2ccc(Nc3ncnc4ccc(NC(=O)CN(C)C)cc34)cc2Cl)c1`: the GI50 with A498 renal is 1.8 µM; in the assay on DU-145 prostate, 2.14 µM; with HS 578T breast, 1.81 µM; in the assay on K-562 leukemia it was 1.91 µM; in the assay with LOX IMVI melanoma, 1.53 µM; in the assay with OVCAR-4 ovarian, 1.7 µM. Also, the figures for the GI50 in the assay on SK-MEL-28 melanoma and in the assay on SW-620 colon were 1.85 µM and 1.64 µM, respectively. The TGI worked out at 9.18 µM in the assay on A498 renal; 10.8 µM in the assay with DU-145 prostate; 4.33 µM in the assay with HS 578T breast; 4.63 µM in the assay with K-562 leukemia; 2.86 µM in the assay with LOX IMVI melanoma; 5.59 µM with OVCAR-4 ovarian. The TGI came out at 3.48 µM in the assay with SK-MEL-28 melanoma and 3.05 µM with SW-620 colon.

Regarding `O=C1NC(=NCc2cccs2)O/C1=C\c1ccc2ncccc2c1`, the GI50 in the assay on A498 renal was 0.606 µM; with DU-145 prostate, 5.82 µM; with HS 578T breast, 4.72 µM; with K-562 leukemia, 7.31 µM; in the assay on LOX IMVI melanoma, 5.87 µM; in the assay with OVCAR-4 ovarian, 4.5 µM. In addition, the figures for the GI50 in the assay on SK-MEL-28 melanoma and in the assay with SW-620 colon were 5.87 µM and 4.74 µM, respectively. The TGI in the assay with A498 renal was 4.81 µM; in the assay with DU-145 prostate it was greater than 25 µM; in the assay on HS 578T breast, 14.8 µM; with K-562 leukemia it was greater than 25 µM; in the assay with LOX IMVI melanoma, 19.4 µM; with OVCAR-4 ovarian, greater than 20.3 µM. The figures for the total growth inhibition concentration (TGI) in the assay on SK-MEL-28 melanoma and in the assay with SW-620 colon were 18 µM and 15.7 µM, respectively.

As to `COc1ccccc1CNCCCN1C(=O)c2ccc3c4c(ccc(c24)C1=O)C(=O)N(CCCNCc1ccccc1OC)C3=O`, the GI50 in the assay with A498 renal is 1.21 µM; in the assay with DU-145 prostate it was 0.163 µM; in the assay on HS 578T breast, 0.59 µM; in the assay with K-562 leukemia, 0.265 µM; with LOX IMVI melanoma, 0.135 µM; in the assay with OVCAR-4 ovarian, 0.101 µM. In addition, the results for the GI50 in the assay on SK-MEL-28 melanoma and in the assay with SW-620 colon were 0.436 µM and 0.0861 µM, respectively. The total growth inhibition concentration (TGI) is 2.5 µM in the assay with A498 renal; 0.309 µM in the assay on DU-145 prostate; 2.13 µM in the assay with HS 578T breast; 0.83 µM in the assay on K-562 leukemia; 0.365 µM in the assay on LOX IMVI melanoma; 0.231 µM in the assay with OVCAR-4 ovarian. Besides, the TGI in the assay with SK-MEL-28 melanoma is 0.876 µM; with SW-620 colon, 0.298 µM.
